{
  "source": "patent US12448358B2",
  "about": "“Inhibitors of protein arginine deiminase 1 and methods of preparation and use thereof” (University of Massachusetts, priority 2019, dated 2025)",
  "key": {"[1]": {"target": "T1, PAD1 (Homo sapiens, UniProt Q9ULC6)", "T1 construct": "made in house", "T1 sequence (Q9ULC6 1-663)": "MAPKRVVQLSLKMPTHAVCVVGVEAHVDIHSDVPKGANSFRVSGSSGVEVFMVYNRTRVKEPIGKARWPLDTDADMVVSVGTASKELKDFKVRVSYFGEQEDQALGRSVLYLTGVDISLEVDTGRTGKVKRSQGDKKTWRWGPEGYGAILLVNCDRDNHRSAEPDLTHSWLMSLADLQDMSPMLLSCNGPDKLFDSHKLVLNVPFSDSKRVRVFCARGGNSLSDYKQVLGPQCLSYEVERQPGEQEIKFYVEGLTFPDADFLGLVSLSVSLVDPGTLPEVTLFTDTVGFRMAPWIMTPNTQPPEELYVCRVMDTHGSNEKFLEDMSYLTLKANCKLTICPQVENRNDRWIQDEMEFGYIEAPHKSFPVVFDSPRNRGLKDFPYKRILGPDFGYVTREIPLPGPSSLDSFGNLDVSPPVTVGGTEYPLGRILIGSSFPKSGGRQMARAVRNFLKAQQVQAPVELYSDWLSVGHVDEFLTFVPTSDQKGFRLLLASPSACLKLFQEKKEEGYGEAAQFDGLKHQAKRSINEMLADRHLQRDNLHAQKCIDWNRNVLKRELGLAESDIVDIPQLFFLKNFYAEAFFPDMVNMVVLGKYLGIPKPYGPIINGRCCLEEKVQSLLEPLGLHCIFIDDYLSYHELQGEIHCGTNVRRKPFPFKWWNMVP", "experiment": "Limit of detection of PAD1 labelling in HEK293TPAD1 cells by probe", "assay_type": "cell-based", "conditions": "5 μM probe, 3 h; calculated from PAD1 content 0.06% of the total protein", "description": "FIG. 16. (A) Time-dependent labelling of PAD1 in HEK293TPAD1 cells by 21. HEK293TPAD1 cells were treated with 21 (5 μM) in serum-free DMEM for various times. After the treatment, cells were harvested and flash-frozen in liquid nitrogen. Cell lysates were treated with TAMRA-N3, TCEP, TBTA and CuSO4 for 2 h at room temperature. Time-dependent labelling of PAD1 by 21 was recorded on a Typhoon scanner. (B) Limit of detection of PAD1 in HEK293TPAD1 cells by 21. For this study, cells were treated with 5 μM of 21 in serum-free DMEM for 3 h and decreasing amounts (indicated by total protein content) of lysates were clicked with TAMRA-N3 in the presence of TCEP, TBTA and freshly prepared CuSO4. […] F stands for fluorograph.\nDose-dependent Labelling of PAD1 in HEK293TPAD1 cells with 21. HEK293TPAD1 cells were plated in 6-well plates at a density of ˜1×10^6 cells/well and were allowed to grow in DMEM (supplemented with 10% heat-inactivated fetal bovine serum, 100 units/mL penicillin, 100 μg/mL streptomycin and 0.15 mg/mL hygromycin B) for 12 h. […] Soluble proteins in the lysate were quantified by DC-assay (Bio-Rad). […] Protein bands were visualized by recording in-gel fluorescence using a typhoon scanner (approximate excitation/emission maxima ˜546/579, respectively). […]"}, "[2]": {"target": "T1, PAD1", "experiment": "Limit of detection for in vitro labelling of recombinant PAD1 by probe", "assay_type": "binding", "conditions": "10 μM probe, conjugated with TAMRA-N3 using CuAAC", "description": "Dose-dependent in vitro Labelling of Recombinant PADs with 21 and 22. A PAD (1.4 μM) was added to a prewarmed (10 min at 37° C.) reaction mixture (25 mM TRIS pH 7.4, 10 mM NaCl, and 5 mM CaCl2) containing various concentrations of 21 or 22 (or equal volume of DMSO for control). The mixture was incubated at 37° C. for 15 min. Then TAMRA-N3 (50 μM), TCEP (1 mM), TBTA (0.3 mM) and freshly prepared copper (II) sulphate (1 mM) were sequentially added to the reaction mixture and the tubes were gently tumbled at room temperature for 2 h. Then the reactions were quenched with 5×SDS-PAGE loading dye, heated at 95° C. for 15 min and loaded onto 4-15% gradient SDS-PAGE gel. Protein bands were visualized by recording in-gel fluorescence using a typhoon scanner (approximate excitation/emission maxima ˜546/579, respectively). All the experiments were performed at least in duplicate.\nLimit of Detection for in vitro Labelling of Recombinant PADs with 21 and 22. Various concentrations of PAD were added to prewarmed (10 min at 37° C.) reaction mixtures (25 mM TRIS pH 7.4, 10 mM NaCl, 5 mM CaCl2) containing 10 μM of 21 or 22. […] Protein bands were visualized by recording in-gel fluorescence using a typhoon scanner (approximate excitation/emission maxima ˜546/579, respectively). […]"}},
  "data": [
    {"smiles": "C#Cc1c(I)cc(C(=O)N[C@@H](CCCNC(=N)CF)c2nc3ccccc3[nH]2)c(O)c1I", "note": "[Compound 21]", "values": [
      {"measurement": "LOD of PAD1 in HEK293TPAD1 cells", "setting": "[1]", "value": 72, "unit": "pmol"},
      {"measurement": "limit of detection (LOD) of recombinant PAD1", "setting": "[2]", "value": 4.3, "unit": "pmol"}
    ]}
  ]
}
